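Cultured in 96-well plates, cells were exposed to test compound for 48 hours across five concentrations. Definition used: TGI = concentration required for complete inhibition of growth.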

This note sets out measurements from PubChem BioAssay (NCI).

Assay in all cases: NCI anticancer screen, dose series, 48 h
Assay [1] concerns NCI/ADR-RES ovarian.
Assay [2] deals with HCT-15 colon.
Assay [3] has as its system SK-MEL-2 melanoma.
Assay [4] relates to LOX IMVI melanoma.
Assay [5] concerns DU-145 prostate.
Assay [6] deals with SK-OV-3 ovarian.
For assay [7], the system named is MCF7 breast.
Assay [8] concerns K-562 leukemia.
The test system of assay [9] is SW-620 colon.
Assay [10] deals with M14 melanoma.
In assay [11] the test system is A498 renal.
Assay [12] relates to NCI-H23 lung.
The subject of assay [13] is UACC-257 melanoma.
The subject of assay [14] is U251 CNS.
Assay [15] relates to UACC-62 melanoma.
Assay [16] concerns CCRF-CEM leukemia.

Take `Cn1c2c(c3c(=O)[nH]ncc31)CCCc1ccccc1-2`: the TGI in [1] is greater than 100 µM; in assay [2] it was greater than 100 µM; in assay [3] it was 40.2 µM; in assay [4], 46.1 µM; in [5] it was greater than 100 µM; in assay [6], 64 µM. For the same compound, the TGI in assay [7] was 53 µM; in [8] it was greater than 100 µM; in assay [9], greater than 100 µM; in [10] it was greater than 100 µM; in [11] it was 57.3 µM; in [12], greater than 100 µM. Also, the TGI in assay [13] was greater than 100 µM; in assay [14] it was 92.1 µM; in assay [15], greater than 100 µM; in [16], greater than 100 µM.
As to `O=c1ccc2nc3ccc(O)cc3oc-2c1`, the TGI was greater than 100 µM in assay [1]; greater than 100 µM in [2]; 57.7 µM in assay [3]; 7.86 µM in assay [4]; 57.5 µM in assay [5]; greater than 100 µM in assay [6]. Also, the TGI in assay [7] is greater than 52.7 µM; in assay [8], 34.7 µM; in assay [9] it was greater than 88.9 µM; in assay [10], 19.5 µM; in assay [11], greater than 100 µM; in assay [12] it was 14.3 µM. Further, the TGI in assay [13] was 26.4 µM; in [14], greater than 100 µM; in assay [15], 5.55 µM; in assay [16], greater than 100 µM.
For the compound `CCO/N=C(/CC)c1ccc(Br)s1`, the TGI in assay [1], in [2], in assay [3], in assay [4], in assay [5] and in [6] was greater than 100 µM in each case. The TGI in [7], in [8], in assay [9], in assay [10], in assay [11] and in [12] was greater than 100 µM throughout. Moreover, the TGI in assay [13], in [14], in assay [15] and in [16] was greater than 100 µM in each case.
Take `Nc1c(O)c(C(=O)O)cc2ccccc12`: the TGI was greater than 100 µM in assay [1]; greater than 100 µM in [2]; 35 µM in assay [3]; 22.5 µM in [4]; 35.9 µM in assay [5]; greater than 100 µM in [6]. In addition, the TGI in [7] was 24.2 µM; in assay [8], 85.9 µM; in assay [9], 32.3 µM; in [10], 35.2 µM; in assay [11], greater than 100 µM; in assay [12], 65.3 µM. For the same compound, the TGI in assay [13] was 38.4 µM; in [14] it was greater than 100 µM; in assay [15] it was 31.6 µM; in assay [16], greater than 100 µM.
Regarding `CC(=O)Nc1ccc2c3c(cc(O)c2c1)N(C(=O)CCCCCC(=O)Nc1ccc2c4c(cc(O)c2c1)N(C(=O)OC(C)(C)C)CC4CCl)CC3CCl` (configuration not stated), the TGI was greater than 100 µM in [1]; greater than 100 µM in assay [2]; 4.02 µM in assay [3]; 18.2 µM in assay [4]; 3.12 µM in assay [5]; greater than 47.6 µM in assay [6]. For the same compound, the TGI in assay [7] was greater than 35.5 µM; in assay [8] it was greater than 100 µM; in [9] it was greater than 100 µM; in [10] it was 20.5 µM; in assay [11] it was 5.31 µM; in assay [12] it was 3.59 µM. Also, the TGI in assay [13] was greater than 28.6 µM; in assay [14], 6.75 µM; in assay [15] it was 3.87 µM; in assay [16] it was 0.648 µM.
Regarding `Cc1ccc(S(=O)(=O)N/N=C2\CC3C4CCC3C2C4)cc1` (configuration not stated), the TGI in assay [1], in assay [2], in [3], in [4], in [5] and in assay [6] was greater than 100 µM throughout. Further, the TGI in assay [7], in assay [8], in assay [9], in assay [10], in assay [11] and in assay [12] was greater than 100 µM in each case. The TGI in [13], in [14], in assay [15] and in assay [16] was greater than 100 µM throughout.
For the compound `NC1=CN(Cc2ccccc2)C2=N/C(=C\c3ccco3)C(=O)N12`, the TGI in assay [1], in assay [2], in [3], in [4], in [5] and in assay [6] was greater than 100 µM in each case. Also, the TGI in [7], in assay [8], in assay [9], in assay [10], in assay [11] and in assay [12] was greater than 100 µM throughout. Besides, the TGI in [13], in assay [14], in assay [15] and in assay [16] was greater than 100 µM in each case.
In the case of `CC(C)C(=O)CP(=O)(O)O`, the TGI in assay [1], in [2], in assay [3], in [4], in assay [5] and in assay [6] was greater than 100 µM throughout. Also, the TGI in [7], in assay [8], in assay [9], in assay [10], in assay [11] and in [12] was greater than 100 µM throughout. Further, the TGI in assay [13], in assay [14], in [15] and in [16] was greater than 100 µM each time.
Consider `CC(C)(C)c1cc2c(O)c(c1)COCc1cc(C(C)(C)C)cc(c1O)COCc1cc(C(C)(C)C)cc(c1O)COC2`, for which the TGI in [1], in [2], in assay [3], in assay [4], in [5] and in assay [6] was greater than 100 µM throughout. In addition, the TGI in [7], in assay [8], in [9], in assay [10], in assay [11] and in assay [12] was greater than 100 µM in each case. For the same compound, the TGI in [13], in assay [14], in [15] and in assay [16] was greater than 100 µM throughout.
As for `Cc1cccc2c(=O)c3c(O)cc4c(c3n(C)c12)C=CC(C)(C)O4`, the TGI in [1], in assay [2], in assay [3], in [4], in [5] and in [6] was greater than 100 µM throughout. Besides, the TGI in [7] is greater than 100 µM; in [8], 48 µM; in assay [9] it was greater than 100 µM; in [10], greater than 100 µM; in assay [11] it was greater than 100 µM; in assay [12], greater than 100 µM. Also, the TGI in [13], in assay [14], in assay [15] and in [16] was greater than 100 µM each time.
With `COc1ccc(NC(C)=O)cc1N1C(=O)/C(=C\c2cccc(Oc3ccccc3)c2)SC1c1ccccc1` (configuration not stated), the TGI was 54.8 µM in assay [1]; greater than 100 µM in assay [2]; greater than 100 µM in [3]; 55.5 µM in assay [4]; greater than 100 µM in assay [5]; greater than 100 µM in assay [6]. In addition, the TGI in [7] was greater than 100 µM; in [8], greater than 100 µM; in [9], 71.1 µM; in [10], greater than 100 µM; in [11], greater than 100 µM; in [12], greater than 100 µM. Further, the TGI in assay [13] was greater than 100 µM; in assay [14] it was greater than 100 µM; in assay [15], greater than 100 µM; in assay [16], 67.2 µM.
`CCOC(=O)c1c(CN2CCOCC2)n(Cc2ccccc2)c2c1cc(O)c1nc(C)c(C)nc12`: the TGI in assay [1] is greater than 100 µM; in assay [2] it was greater than 100 µM; in [3] it was 44.5 µM; in assay [4] it was greater than 100 µM; in [5] it was greater than 100 µM; in [6], greater than 100 µM. Besides, the TGI in assay [7] was 34.5 µM; in assay [8], greater than 100 µM; in assay [9] it was greater than 100 µM; in [10] it was greater than 100 µM; in [11], 55.3 µM; in [12], greater than 100 µM. Moreover, the TGI in [13] is greater than 100 µM; in [14] it was 74.3 µM; in assay [15], greater than 100 µM; in assay [16] it was greater than 100 µM.
`CC(C)(C)OC(=O)CC(NC(=O)OC(C)(C)C)C(=O)Oc1ccc([N+](=O)[O-])cc1` (configuration not stated): the TGI in assay [1], in assay [2], in [3], in assay [4], in assay [5] and in assay [6] was greater than 100 µM each time. Moreover, the TGI in assay [7], in assay [8], in [9], in assay [10], in [11] and in assay [12] was greater than 100 µM each time. In addition, the TGI was greater than 100 µM in assay [13], greater than 100 µM in assay [14], 65.9 µM in [15] and greater than 100 µM in [16].
For `COc1ccc(/C=C2\CC3C4CC=C5C[C@@H](O)CC[C@]5(C)C4CC[C@]3(C)C2=O)cc1OC` (some centres not stated), the TGI in [1], in assay [2], in [3], in assay [4], in assay [5] and in assay [6] was greater than 100 µM in each case. In addition, the TGI was greater than 100 µM in [7]; greater than 100 µM in assay [8]; greater than 100 µM in assay [9]; greater than 100 µM in assay [10]; 93.6 µM in assay [11]; greater than 100 µM in assay [12]. In addition, the TGI in assay [13], in [14], in [15] and in assay [16] was greater than 100 µM each time.
In the case of `CCOC(=O)c1c[nH]c2cc3c(cc2c1=O)CCS3`, the TGI in [1], in assay [2], in assay [3], in assay [4], in assay [5] and in assay [6] was greater than 100 µM each time. The TGI in assay [7], in assay [8], in [9], in assay [10], in [11] and in [12] was greater than 100 µM throughout. The TGI in assay [13], in assay [14], in assay [15] and in assay [16] was greater than 100 µM in each case.
Consider `O[C@H]1[C@@H]2OC[C@@H](O)[C@H](OCc3ccccc3)[C@@](COCc3ccccc3)(O2)[C@@H]1OCc1ccccc1`, for which the TGI in [1] turned out to be 32 µM; in assay [2] it was 30.9 µM; in assay [3], 29.7 µM; in assay [4], 32.7 µM; in assay [5], 35.5 µM; in assay [6] it was 36.6 µM. Besides, the TGI is 39.6 µM in [7]; 67 µM in assay [8]; 33.1 µM in assay [9]; 36.3 µM in assay [10]; 31.4 µM in [11]; 32.3 µM in assay [12]. For the same compound, the TGI in assay [13] was determined as 28.7 µM; in assay [14], 30.4 µM; in assay [15], 23.5 µM; in assay [16] it was 42.1 µM.
With `CC1(C)N=C(N)N=C(N)N1CCCCc1ccccc1`, the TGI was greater than 100 µM in [1]; greater than 100 µM in assay [2]; greater than 100 µM in [3]; greater than 100 µM in assay [4]; greater than 100 µM in assay [5]; 97.5 µM in [6]. Also, the TGI in assay [7], in [8], in assay [9], in [10], in assay [11] and in assay [12] was greater than 100 µM in each case. For the same compound, the TGI in assay [13] is greater than 75.9 µM; in [14], greater than 100 µM; in [15] it was greater than 100 µM; in assay [16], greater than 100 µM.
